How the values were obtained:
Format in all cases: in vivo
[1] = tested on: Myzus persicae (green peach aphid); assay: Myzus persicae (sachet) mixed population test; conditions: 120 h, sucrose solution, application rate 12.5 ppm, mortality 5 days after infestation
From the text: Test compounds were applied by pipette into 24 well plates and mixed with Sucrose solution. The plates were closed with a stretched Parafilm. A plastic stencil with 24 holes is placed onto the plate and infested pea seedlings were placed directly on the Parafilm. The infested plate is closed with a gel blotting paper and another plastic stencil and then turned upside down. 5 days after infestation the samples were checked on mortality. Application rate: 12.5 ppm.

[2] = tested on: Thrips tabaci (onion thrips); assay: Thrips tabaci sunflower leaf disc spray test; conditions: foliar, 168 h, sunflower leaf discs sprayed at 200 ppm, mixed ages, mortality after 7 days
Procedure: Sunflower leaf discs were placed on agar in a 24-well microtiter plate and sprayed with test solutions at an application rate of 200 ppm. […] After drying, the leaf discs were infested with a thrip population of mixed ages. After an incubation period of 7 days, samples were checked for mortality.

[3] = tested on: Tetranychus urticae (two-spotted spider mite); assay: Tetranychus urticae bean leaf disc spray test; conditions: foliar, 192 h, bean leaf discs sprayed at 200 ppm, mixed ages, egg, larval and adult mortality 8 days later
From the text: Bean leaf discs on agar in 24-well microtiter plates were sprayed with test solutions at an application rate of 200 ppm. After drying, the leaf discs are infested with mite populations of mixed ages. 8 days later, discs are checked for egg mortality, larval mortality, and adult mortality. […]

[4] = tested on: Spodoptera littoralis (Egyptian cotton leafworm); assay: Spodoptera littoralis cotton leaf disc spray test; conditions: foliar, 72 h, cotton leaf discs sprayed at 200 ppm, 5 L1 larvae, mortality, feeding behavior, growth regulation 3 days after treatment
From the text: Cotton leaf discs were placed on agar in a 24-well microtiter plate and sprayed with test solutions at an application rate of 200 ppm. After drying, the leaf discs were infested with 5 L1 larvae. The samples were checked for mortality, feeding behavior, and growth regulation 3 days after treatment (DAT).

[5] = tested on: Heliothis virescens (tobacco budworm); assay: Heliothis virescens egg test on artificial diet; conditions: 96 h, 200 ppm (concentration in well 18 ppm), eggs 0-24 h old, 4 days, egg mortality, larval mortality, growth regulation
Procedure: Eggs (0-24 h old) were placed in 24-well microtiter plate on artificial diet and treated with test solutions at an application rate of 200 ppm (concentration in well 18 ppm) by pipetting. After an incubation period of 4 days, samples were checked for egg mortality, larval mortality, and growth regulation.

[6] = tested on: Plutella xylostella (diamond back moth); assay: Plutella xylostella L2 larvae test on artificial diet; conditions: 144 h, 200 ppm (concentration in well 18 ppm), 6 days, larval mortality and growth regulation
Procedure: 24-well microtiter plate (MTP) with artificial diet was treated with test solutions at an application rate of 200 ppm (concentration in well 18 ppm) by pipetting. After drying, the MTPs were infested with L2 larvae (7-12 per well). After an incubation period of 6 days, samples were checked for larval mortality and growth regulation.

[7] = tested on: Diabrotica balteata (corn root worm); assay: Diabrotica balteata L2 larvae test on artificial diet; conditions: 120 h, 200 ppm (concentration in well 18 ppm), 5 days, larval mortality and growth regulation
Procedure, shortened: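 Artificial diet treated with test solution at 200 ppm or 12.5 ppm application rate (in-well concentration stated as 18 ppm), dried, then infested with 6-10 L2 larvae per well. Larval mortality and growth regulation scored after 5 days.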

COCC(C)NC(=O)c1ccc(C2=CC(c3cc(Cl)cc(Cl)c3)(C(F)(F)F)OC2)cc1C (centres unmarked) [Compound D4]
≥ 80%: pest or weed control at 12.5 ppm [1] | pest or weed control at 200 ppm [2] | pest or weed control at 200 ppm [3]

CSCC(C)(C)NC(=O)c1ccc(C2=CC(c3cc(Cl)cc(Cl)c3)(C(F)(F)F)OC2)cc1C (centres unmarked) [Compound D19]
≥ 80%: pest or weed control at 200 ppm [4] | pest or weed control at 200 ppm [5] | pest or weed control at 200 ppm [6] | pest or weed control at 200 ppm [7] | pest or weed control at 12.5 ppm [1] | pest or weed control at 200 ppm [3]

Cc1cc(C2=CC(c3cc(Cl)cc(Cl)c3)(C(F)(F)F)OC2)ccc1C(=O)NCc1ccc(Cl)nc1 (centres unmarked) [Compound D13]
≥ 80%: pest or weed control at 200 ppm [7] | pest or weed control at 12.5 ppm [1]

COc1ccc(CNC(=O)c2ccc(C3=CC(c4cc(Cl)cc(Cl)c4)(C(F)(F)F)OC3)cc2C)cc1 (centres unmarked) [Compound D12]
≥ 80%: pest or weed control at 200 ppm [7] | pest or weed control at 12.5 ppm [1] | pest or weed control at 200 ppm [2]

Cc1cc(NC(=O)c2ccc(C3=CC(c4cc(Cl)cc(Cl)c4)(C(F)(F)F)OC3)cc2C)n(C)n1 (centres unmarked) [Compound D16]
≥ 80%: pest or weed control at 200 ppm [7] | pest or weed control at 12.5 ppm [1] | pest or weed control at 200 ppm [2]

Cc1cc(C2=CC(c3cc(Cl)cc(Cl)c3)(C(F)(F)F)OC2)ccc1C(=O)NC(C)c1ccccc1 (centres unmarked) [Compound D11]
≥ 80%: pest or weed control at 200 ppm [7] | pest or weed control at 12.5 ppm [1] | pest or weed control at 200 ppm [2]

CCC(C)NC(=O)c1ccc(C2=CC(c3cc(Cl)cc(Cl)c3)(C(F)(F)F)OC2)cc1C (centres unmarked) [Compound D7]
≥ 80%: pest or weed control at 12.5 ppm [1]

Cc1cc(C2=CC(c3cc(Cl)cc(Cl)c3)(C(F)(F)F)OC2)ccc1C(=O)NC1(C)CSC1 (centres unmarked) [Compound D18]
≥ 80%: pest or weed control at 200 ppm [7] | pest or weed control at 12.5 ppm [1] | pest or weed control at 200 ppm [2]

Cc1cc(C2=CC(c3cc(Cl)cc(Cl)c3)(C(F)(F)F)OC2)ccc1C(=O)NCc1cn(C)cn1 (centres unmarked) [Compound A17]
≥ 80%: pest or weed control at 200 ppm [4] | pest or weed control at 200 ppm [5] | pest or weed control at 200 ppm [6] | pest or weed control at 200 ppm [7] | pest or weed control at 200 ppm [2] | pest or weed control at 200 ppm [3]

Cc1csc(NC(=O)c2ccc(C3=CC(c4cc(Cl)cc(Cl)c4)(C(F)(F)F)OC3)cc2C)n1 (centres unmarked) [Compound D17]
≥ 80%: pest or weed control at 200 ppm [7] | pest or weed control at 12.5 ppm [1]

Cc1cc(C2=CC(c3cc(Cl)cc(Cl)c3)(C(F)(F)F)OC2)ccc1C(=O)NCc1ccc(S(C)(=O)=O)cc1 (centres unmarked) [Compound A25]
≥ 80%: pest or weed control at 200 ppm [4] | pest or weed control at 200 ppm [5] | pest or weed control at 200 ppm [6] | pest or weed control at 200 ppm [7] | pest or weed control at 12.5 ppm [1] | pest or weed control at 200 ppm [3]

Cc1cc(C2=CC(c3cc(Cl)cc(Cl)c3)(C(F)(F)F)OC2)ccc1C(=O)NC1CCC1 (centres unmarked) [Compound D23]
≥ 80%: pest or weed control at 200 ppm [6] | pest or weed control at 200 ppm [7] | pest or weed control at 12.5 ppm [1] | pest or weed control at 200 ppm [2]

Cc1cc(C2=CC(c3cc(Cl)cc(Cl)c3)(C(F)(F)F)OC2)ccc1C(=O)NCCC(F)(F)F (centres unmarked) [Compound D6]
≥ 80%: pest or weed control at 12.5 ppm [1]

Cc1cc(C2=CC(c3cc(Cl)cc(Cl)c3)(C(F)(F)F)OC2)ccc1C(=O)NCCC(F)(F)F (centres unmarked) [Compound A20]
≥ 80%: pest or weed control at 200 ppm [4] | pest or weed control at 200 ppm [5] | pest or weed control at 200 ppm [6] | pest or weed control at 200 ppm [7] | pest or weed control at 200 ppm [2] | pest or weed control at 200 ppm [3]

Cc1cc(C2=CC(c3cc(Cl)cc(Cl)c3)(C(F)(F)F)OC2)ccc1C(=O)NCC(F)F (centres unmarked) [Compound A29]
≥ 80%: pest or weed control at 200 ppm [4] | pest or weed control at 200 ppm [5] | pest or weed control at 200 ppm [6] | pest or weed control at 200 ppm [7] | pest or weed control at 200 ppm [2] | pest or weed control at 200 ppm [3]

CCNC(=O)c1ccc(C2=CC(c3cc(Cl)cc(Cl)c3)(C(F)(F)F)OC2)cc1C (centres unmarked) [Compound A4]
≥ 80%: pest or weed control at 200 ppm [4] | pest or weed control at 200 ppm [5] | pest or weed control at 200 ppm [6] | pest or weed control at 200 ppm [7] | pest or weed control at 200 ppm [2] | pest or weed control at 200 ppm [3]

Cc1cc(C2=CC(c3cc(Cl)cc(Cl)c3)(C(F)(F)F)OC2)ccc1C(=O)Nc1cccc(F)c1 (centres unmarked) [Compound D14]
≥ 80%: pest or weed control at 200 ppm [7] | pest or weed control at 12.5 ppm [1] | pest or weed control at 200 ppm [3]

Cc1cc(C2=CC(c3cc(Cl)cc(Cl)c3)(C(F)(F)F)OC2)ccc1C(=O)NCCC1CS(=O)(=O)C1 (centres unmarked) [Compound A83]
≥ 80%: pest or weed control at 200 ppm [4] | pest or weed control at 200 ppm [5] | pest or weed control at 200 ppm [6] | pest or weed control at 200 ppm [7] | pest or weed control at 12.5 ppm [1] | pest or weed control at 200 ppm [3]

CO/N=C/NC(=O)c1ccc(C2=CC(c3cc(Cl)cc(Cl)c3)(C(F)(F)F)OC2)cc1C (centres unmarked) [Compound A86, (E)-4-[5-(3,5-Dichlorophenyl)-5-trifluoromethyl-2,5-dihydro-furan-3-yl]-N-[(methoxyimino)methyl]-2-methylbenzamide]
≥ 80%: pest or weed control at 200 ppm [4] | pest or weed control at 200 ppm [5] | pest or weed control at 200 ppm [6] | pest or weed control at 200 ppm [7] | pest or weed control at 200 ppm [2] | pest or weed control at 200 ppm [3]

Cc1cc(C2=CC(c3cc(Cl)cc(Cl)c3)(C(F)(F)F)OC2)ccc1C(=O)NC1C[S+]([O-])C1 (centres unmarked) [Compound A77]
≥ 80%: pest or weed control at 12.5 ppm [1] | pest or weed control at 200 ppm [2]

CCC(C)NC(=O)c1ccc(C2=CC(c3cc(Cl)cc(Cl)c3)(C(F)(F)F)OC2)cc1C (centres unmarked) [Compound A27]
≥ 80%: pest or weed control at 200 ppm [4] | pest or weed control at 200 ppm [5] | pest or weed control at 200 ppm [6] | pest or weed control at 200 ppm [7] | pest or weed control at 200 ppm [2] | pest or weed control at 200 ppm [3]

N#Cc1cc(C2=CO[C@@](c3cc(Cl)cc(Cl)c3)(C(F)(F)F)C2)ccc1-n1cncn1 [H1*, 5-[(2S)-2-(3,5-dichlorophenyl)-2-(trifluoromethyl)-3H-furan-4-yl]-2-(1,2,4-triazol-1-yl)benzonitrile]
≥ 80%: pest or weed control at 200 ppm [5] | pest or weed control at 200 ppm [6] | pest or weed control at 200 ppm [7] | pest or weed control at 12.5 ppm [1] | pest or weed control at 200 ppm [2]

Reference: patent US20140343049A1, “DIHYDROFURAN DERIVATIVES AS INSECTICIDAL COMPOUNDS” (SYNGENTA PARTICIPATIONS AG, priority 2011, published 2014)
